Numbers after ± are expanded uncertainties.

For the data set the following is noted: Crystal; visual observation.

Consider `CN(C)c1ccc(C(=C2C=CC(=[N+](C)C)C=C2)c2ccccc2)cc1.CN(C)c1ccc(C(=C2C=CC(=[N+](C)C)C=C2)c2ccccc2)cc1.O=C(O)C(=O)O.O=C([O-])C(=O)O.O=C([O-])C(=O)O` [Malachite green oxalate], for which the Normal melting temperature worked out at 160.00 ± 1.1 °C.
Turning to `Cc1cc2nc3cc(C)c(N)cc3[n+](-c3ccccc3)c2cc1N.[Cl-]` [Safranine O], the Normal melting temperature is 300.00 ± 1.1 °C.

The values above are taken from the NIST ThermoML archive (doi:10.1016/j.jct.2016.12.031).
